We go through one compound from ChEMBL document CHEMBL5131570, “Discovery of Potent Small-Molecule USP8 Inhibitors for the Treatment of Breast Cancer through Regulating ERα Expression” (J Med Chem, 2022).

Series [1] concerns the target T1, Ubiquitin carboxyl-terminal hydrolase 8 (Homo sapiens) (UniProt P40818).
T1 sequence (whole entry): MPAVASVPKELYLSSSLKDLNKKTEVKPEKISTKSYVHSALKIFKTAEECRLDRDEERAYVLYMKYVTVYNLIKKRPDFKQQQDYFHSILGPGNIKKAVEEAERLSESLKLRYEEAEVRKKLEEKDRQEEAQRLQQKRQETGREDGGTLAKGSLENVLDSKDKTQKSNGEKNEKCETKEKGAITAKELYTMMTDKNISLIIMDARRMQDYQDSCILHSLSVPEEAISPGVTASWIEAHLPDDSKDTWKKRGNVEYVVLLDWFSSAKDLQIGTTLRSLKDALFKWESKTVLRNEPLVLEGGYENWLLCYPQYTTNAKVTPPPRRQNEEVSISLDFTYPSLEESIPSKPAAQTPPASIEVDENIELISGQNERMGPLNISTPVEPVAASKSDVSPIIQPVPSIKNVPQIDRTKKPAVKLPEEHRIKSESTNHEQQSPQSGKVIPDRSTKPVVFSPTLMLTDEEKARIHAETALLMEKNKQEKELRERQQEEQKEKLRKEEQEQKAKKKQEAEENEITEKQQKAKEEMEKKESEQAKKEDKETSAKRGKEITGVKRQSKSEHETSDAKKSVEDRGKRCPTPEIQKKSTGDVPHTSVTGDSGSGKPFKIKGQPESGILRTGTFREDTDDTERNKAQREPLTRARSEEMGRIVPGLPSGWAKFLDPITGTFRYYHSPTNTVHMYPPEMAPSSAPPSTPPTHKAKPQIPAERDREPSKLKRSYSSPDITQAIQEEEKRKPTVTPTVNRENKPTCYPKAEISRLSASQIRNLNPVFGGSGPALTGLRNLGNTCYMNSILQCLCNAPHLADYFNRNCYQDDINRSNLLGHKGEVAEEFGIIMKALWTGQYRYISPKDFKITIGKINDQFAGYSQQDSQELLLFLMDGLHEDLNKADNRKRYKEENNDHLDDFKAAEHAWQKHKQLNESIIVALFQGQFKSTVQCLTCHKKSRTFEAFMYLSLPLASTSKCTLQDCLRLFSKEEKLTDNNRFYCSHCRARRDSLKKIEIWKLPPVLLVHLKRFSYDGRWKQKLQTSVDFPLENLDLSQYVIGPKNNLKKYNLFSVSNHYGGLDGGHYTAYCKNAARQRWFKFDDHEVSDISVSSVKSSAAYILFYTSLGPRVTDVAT
In words: Inhibition of N-terminal His6-tagged USP8 catalytic domain (734 to 1110 residues) in HEK293T cell lysates up to 100 uM in presence of HA-Ub-VS probe by HA antibody based Western blotting assay. The series is classed as subcellular. In general terms: Immunoblotting shows a protein as a band on a membrane.

The target in series [2] is T2, Ubiquitin carboxyl-terminal hydrolase 2 (Homo sapiens, UniProt O75604).
T2 sequence (O75604 whole entry): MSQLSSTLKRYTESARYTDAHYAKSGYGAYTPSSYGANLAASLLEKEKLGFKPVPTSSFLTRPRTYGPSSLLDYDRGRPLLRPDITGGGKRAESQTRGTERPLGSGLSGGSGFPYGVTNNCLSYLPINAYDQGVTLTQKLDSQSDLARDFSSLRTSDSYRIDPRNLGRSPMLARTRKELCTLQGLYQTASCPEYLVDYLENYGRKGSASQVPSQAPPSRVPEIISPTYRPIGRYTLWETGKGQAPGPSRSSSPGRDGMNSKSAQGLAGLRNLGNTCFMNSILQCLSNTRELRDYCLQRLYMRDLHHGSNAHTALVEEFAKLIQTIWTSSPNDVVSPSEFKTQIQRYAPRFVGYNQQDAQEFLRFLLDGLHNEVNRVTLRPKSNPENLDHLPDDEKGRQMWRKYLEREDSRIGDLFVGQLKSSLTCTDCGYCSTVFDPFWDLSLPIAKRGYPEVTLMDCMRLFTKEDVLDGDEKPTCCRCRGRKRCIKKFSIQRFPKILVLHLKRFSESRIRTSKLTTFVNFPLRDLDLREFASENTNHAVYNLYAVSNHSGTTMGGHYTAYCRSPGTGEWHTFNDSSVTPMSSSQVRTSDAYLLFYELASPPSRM
Put plainly: Inhibition of USP2 (267 to 599 residues) (unknown origin) catalytic domain expressed in Escherichia coli BL21 (DE3) cells using ubiquitin-rhodamine -110 as substrate incubated for 30 mins followed by substrate addition measured after 30 mins by ubiquitin-rhodamine-110 based fluorometric assay.

The subject of series [3] is MCF7. In words: Antiproliferative activity against human MCF7 cells assessed as reduction in colony formation at 3 uM incubated for 7 days by crystal violet staining based colony formation assay. Format: functional, cell-based. The following applies: time 7.0 day.
Series [4] concerns MCF7. In words: Induction of apoptosis in human MCF7 cells assessed as increase in apoptotic cells at 1 uM incubated for 12 hrs by AnnexinV-FITC/propidium iodide staining based flow cytometry relative to control (reference value: 2.00 %). Format: functional. (In flow cytometry, cells or beads pass a laser one at a time.)
In series [5] the test system is MCF7. Put plainly: Induction of apoptosis in human MCF7 cells assessed as reduction in EGFR expression level up to 5 uM incubated for 24 hrs by Western blotting analysis. The series is classed as functional, cell-based.
Series [6] concerns MCF7. In words: Downregulation of progesterone receptor expression in human MCF7 cells measured after 24 hrs by Western blotting analysis. The following applies: dose 0.5-5 µM, DDE = dose-dependent effect. The series is classed as functional, cell-based.
For series [7], the system named is MCF7. In words: Antitumor activity against human MCF7 cells xenografted in BALB/c mouse assessed as inhibition of tumor growth at 20 mg/kg, ip administered via gavage every other day for 14 days. Format: functional, organism-based. The following applies: time 14.0 day. Background: A xenograft is tissue or cells of one species grown in another, often human tumour cells in immunodeficient mice.

Series [8] deals with MCF7. Put plainly: Antitumor activity against human MCF7 cells xenografted in BALB/c mouse assessed as reduction of ErbB2 phosphorylation in tumor tissue at 5 to 20 mg/kg, ip administered via gavage every other day for 14 days by immunohistochemistry analysis. The series is classed as functional, organism-based. The conditions noted are these: dose 5-20 mg/kg, time 14.0 day.

For series [9], the system named is MCF7. Put plainly: Antitumor activity against human MCF7 cells xenografted in BALB/c mouse assessed as reduction of ErbB3 phosphorylation in tumor tissue at 5 to 20 mg/kg, ip administered via gavage every other day for 14 days by immunohistochemistry analysis. The series is classed as functional, organism-based. The following applies: dose 5-20 mg/kg, time 14.0 day.

Series [10] relates to MCF7. Put plainly: Antitumor activity against human MCF7 cells xenografted in BALB/c mouse assessed as reduction of ERalpha phosphorylation in tumor tissue at 5 to 20 mg/kg, ip administered via gavage every other day for 14 days by immunohistochemistry analysis. The series is classed as functional, organism-based. The conditions noted are these: dose 5-20 mg/kg, time 14.0 day.

Series [11] can be described thus: Toxicity in BALB/c mouse xenografted with human MCF7 cells assessed as effect on heart at 5 to 20 mg/kg, […] every other day measured after 14 days by hematoxylin and eosin staining based analysis. The series is classed as organism-based. The following applies: in vivo, 336 h, dose 5-20 mg/kg, time 14 day.
Series [12] is described as follows: Toxicity in BALB/c mouse xenografted with human MCF7 cells assessed as effect on spleen at 5 to 20 mg/kg, […] every other day measured after 14 days by hematoxylin and eosin staining based analysis. The series is classed as organism-based. The conditions noted are these: in vivo, 336 h, dose 5-20 mg/kg, time 14 day.
Series [13] is described as follows: Toxicity in BALB/c mouse xenografted with human MCF7 cells assessed as effect on aspartate aminotransferase level at 5 to 20 mg/kg, […] every other day measured after 14 days. Format: organism-based. The following applies: in vivo, 336 h, dose 5-20 mg/kg, time 14 day.
A short description of series [14]: Toxicity in BALB/c mouse xenografted with human MCF7 cells assessed as effect on alanine aminotransferase level at 5 to 20 mg/kg, […] every other day measured after 14 days. The series is classed as organism-based. The following applies: in vivo, 336 h, dose 5-20 mg/kg, time 14 day.

pIC50: −log10 of the molar value. The source made the active and inactive calls. The calls are words filed in the database; no cut-off is given here.

The pIC50 is the IC50 on a negative log10 scale, so that one unit is a factor of ten. Read a high pIC50 as a small IC50. Take `Cc1n[nH]c(C)c1Oc1c(O)cc(O)c2c(=O)cc(-c3ccc(N4CCN(c5ccccn5)CC4)cc3)oc12`: in series [1], the inhibition result was “Active”. The pIC50 in series [2] was 4.30. Also, the outcome with MCF7 [3], in the series on MCF7 [5], in the series on MCF7 [7], in the series on MCF7 [8], in the series with MCF7 [9] and in the series with MCF7 [10] was Active. Moreover, the Activity in the series on MCF7 [4] is 3.45%; in the series on MCF7 [6], “Dde”; in series [11], “Non-Toxic”; in series [12], “Non-Toxic”; in [13], “Non-Toxic”; in series [14] it was “Non-Toxic”.
